Assay results: patent US20200345725A1, “Methods and Compositions for Treating Cancer” (Omeros Corporation, priority 2019, published 2020)
Marks after values point to notes of the source that are not given here.

Tested on: human PBMCs
Test: Th1 cytokines in supernatants of stimulated human PBMC, GPR174 inhibitor with adenosine pathway inhibitors (Examples 15, 18-22)
Assay type: cell-based
Settings: for IFN-γ fold increase (FIG. 44): Example 15; for IFN-γ, ratio relative to vehicle control (Veh column) / IL-2, ratio relative to vehicle control (Veh column) / TNF, ratio relative to vehicle control (Veh column): donor 3, no MRS, Cmpd 10 1, ZM 0.1, PBF 0.1, SCH 0.2 μM, ADA 0.75 μg/mL
Procedure, shortened: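 Human donor PBMCs (1×10^6 cells/well) were stimulated with 1 µg/mL anti-CD3 (UCHT1) plus 0.1 µg/mL anti-CD28 (CD28.2) for 24 h with test agents. IFN-γ, IL-2, TNF and GM-CSF in supernatants were measured by ELISA, Legendplex or MSD. Fold changes were compared by one-way ANOVA with Tukey correction.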

[1] = 12 donors, Cmpd 10 1-2 μM, ZM 0.2-1 μM
[2] = 12 donors, Cmpd 10 1-2 μM, ZM 0.2-1 μM, 24 h
[3] = donor 1, 24 h, Cmp 10 2 μM alone
[4] = donor 1, 24 h, Cmp 10 2 μM alone, listed as Cmp 10
[5] = donor 1, SCH-58261 0.2 μM, alone (label SCH) or with Cmp 10 2 μM (label Cmp 10)
[6] = donor 1, SCH-58261 0.6 μM, alone (label SCH) or with Cmp 10 2 μM (label Cmp 10)
[7] = donor 1, SCH-58261 2 μM, alone (label SCH) or with Cmp 10 2 μM (label Cmp 10)
[8] = donor 2, Cmpd 10 1 μM alone, listed as Cmpd 10
[9] = donor 2, PBF-509 0.1 μM, alone (label PBF) or with Cmpd 10 1 μM (label Cmpd 10)
[10] = donor 2, PBF-509 0.1 μM, alone (label PBF) or with Cmpd 10 1 μM (label Cmpd 10), listed as Cmpd 10
[11] = donor 2, ZM-241385 0.2 μM, alone (label ZM) or with Cmpd 10 1 μM (label Cmpd 10)
[12] = donor 2, ZM-241385 0.2 μM, alone (label ZM) or with Cmpd 10 1 μM (label Cmpd 10), listed as Cmpd 10

CC1CCN(c2cc(N3CCN(S(=O)(=O)c4ccccc4)CC3)c([N+](=O)[O-])cc2F)CC1 [compound 10]
GM-CSF fold-change (FC) vs ZM alone (9 donors, Cmpd 10 1-2 μM, ZM 0.2-1 μM): 1.1 fold
GM-CSF mean fold-change (FC) vs vehicle (9 donors, Cmpd 10 1-2 μM, ZM 0.2-1 μM, 24 h): 1.4 fold
IFN-γ fold-change (FC) vs ZM alone [1]: 1.3 fold
IL-2 fold-change (FC) vs ZM alone [1]: 1.2 fold
TNF fold-change (FC) vs ZM alone [1]: 1.3 fold
IFN-γ mean fold-change (FC) vs vehicle [2]: 2.8 fold
IL-2 mean fold-change (FC) vs vehicle [2]: 1.7 fold
TNF mean fold-change (FC) vs vehicle [2]: 2.7 fold
IFN-γ fold increase (FIG. 44) (24 h, ZM241385 1 μM, alone (label ZM241385) or with compound 10 3 μM (label compound 10)): 9.3 fold
IFN-γ fold increase (FIG. 44) (24 h, ZM241385 10 μM, alone (label ZM241385) or with compound 10 3 μM (label compound 10)): 17.1 fold
IFN-γ fold increase (FIG. 44) (24 h, compound 10 3 μM alone): 2.3 fold
IFN-γ fold-change relative to vehicle control [3]: 4.9 fold
IL-2 fold-change relative to vehicle control [3]: no effect
TNF fold-change relative to vehicle control [3]: 4.2 fold
IFN-γ fold-change relative to vehicle control [4]: 4.9* fold
IL-2 fold-change relative to vehicle control [4]: 0.9 fold
TNF fold-change relative to vehicle control [4]: 4.2* fold
IFN-γ fold-change relative to vehicle control [5]: 11.8* fold
IL-2 fold-change relative to vehicle control [5]: 1.5* fold
TNF fold-change relative to vehicle control [5]: 14.2* fold
IFN-γ fold-change relative to vehicle control [6]: 11.3* fold
IL-2 fold-change relative to vehicle control [6]: 1.4* fold
TNF fold-change relative to vehicle control [6]: 15.9* fold
IFN-γ fold-change relative to vehicle control [7]: 11.0* fold
IL-2 fold-change relative to vehicle control [7]: 1.4* fold
TNF fold-change relative to vehicle control [7]: 14.7* fold
IFN-γ fold-change relative to vehicle control (donor 2, Cmpd 10 1 μM alone): 1.6 fold
IL-2 fold-change relative to vehicle control (donor 2, Cmpd 10 1 μM alone): 1.1 fold
TNF fold-change relative to vehicle control (donor 2, Cmpd 10 1 μM alone): 1.5 fold
IFN-γ fold-change relative to vehicle control [8]: 1.6* fold
TNF fold-change relative to vehicle control [8]: 1.5* fold
IFN-γ fold-change relative to vehicle control [9]: 3.5 fold
IL-2 fold-change relative to vehicle control [9]: 2.0 fold
TNF fold-change relative to vehicle control [9]: 2.3 fold
IFN-γ fold-change relative to vehicle control [10]: 3.5* fold
IL-2 fold-change relative to vehicle control [10]: 2.0* fold
TNF fold-change relative to vehicle control [10]: 2.3* fold
IFN-γ fold-change relative to vehicle control [11]: 8.8 fold
IL-2 fold-change relative to vehicle control [11]: 2.6 fold
TNF fold-change relative to vehicle control [11]: 4.0 fold
IFN-γ fold-change relative to vehicle control [12]: 8.8* fold
IL-2 fold-change relative to vehicle control [12]: 2.6* fold
TNF fold-change relative to vehicle control [12]: 4.0* fold
IFN-γ, MRS/Veh: ratio in the presence vs. the absence of MRS-1754 (donor 3): 0.8*
IL-2, MRS/Veh: ratio in the presence vs. the absence of MRS-1754 (donor 3): 1.5*
TNF, MRS/Veh: ratio in the presence vs. the absence of MRS-1754 (donor 3): 1.1
IFN-γ, ratio relative to vehicle control (Veh column): 2.8 fold
IL-2, ratio relative to vehicle control (Veh column): 2.9 fold
TNF, ratio relative to vehicle control (Veh column): 4.1 fold
IFN-γ, ratio relative to vehicle control (Veh column) (listed as Cmpd 10): 2.8* fold
IL-2, ratio relative to vehicle control (Veh column) (listed as Cmpd 10): 2.9* fold
TNF, ratio relative to vehicle control (Veh column) (listed as Cmpd 10): 4.1* fold
IFN-γ fold-change relative to vehicle control (donor 3, Cmpd 10 1 μM alone): 1.2 fold
IL-2 fold-change relative to vehicle control (donor 3, Cmpd 10 1 μM alone): 1.1 fold
TNF fold-change relative to vehicle control (donor 3, Cmpd 10 1 μM alone): 1.5 fold
